Each structure is given as a SMILES string.

For experiment [1], the system named is Rat Chronic Constriction Injury Model. Nature of the experiment: von Frey test, mechanical allodynia, rat chronic constriction injury (Bennett) model. The format is in vivo, Wistar rat. To be noted: sulindac intraperitoneally 0.4 mg/kg/day; days 8-57; FIG. 4. From the text: (§1) The inventors evaluated the efficacy of a 5 Month Sulindac/Polymer Drug Depot in the Rat Chronic Constriction Injury Model. The animal model was the Bennett Model (Wistar rat). The purpose: To determine whether a 5 month polymer sulindac-eluting depot can improve pain associated behavioral responses in a rat model of neuropathic pain.
(§2) Experimental Design: Four loose chromic gut ligatures, 1 mm apart, were tied around the common sciatic nerve at mid-thigh. Each animal received treatment of test or control article-according to the dosing described in Table 4.
(§3) To date, the inventors have conducted the present study for a period of 57 days and have employed the following two tests: (1) the Hargreaves test on days 7, 14, 21, 28, 35, 42, 49, and 56; and (2) the von Frey test on days 8, 15, 22, 29, 36, 43, 50, and 57. The results of theses tests are summarized in FIGS. 3-6 and show the efficacy of sulindac of the recited time periods.

Experiment [2] shares this test system. Description: Hargreaves test, thermal hyperalgesia, rat chronic constriction injury (Bennett) model. The format is in vivo, Wistar rat. To be noted: sulindac intraperitoneally 0.4 mg/kg/day; days 7-56; FIG. 3.
From the text: as §1, §2, §3

Regarding `CC1=C(CC(=O)O)c2cc(F)ccc2/C1=C\c1ccc([S+](C)[O-])cc1` (centres unmarked) [sulindac], the “pain behavioral response (percentage of baseline), mechanical allodynia, compared to unloaded polymer depots” value in experiment [1] is “reduced the behavioral response”. Besides, the “pain behavioral response (percentage of baseline), thermal hyperalgesia, compared to unloaded polymer depot” value in experiment [2] is “consistently reduced the behavioral response”.
